The results in this text go back to ChEMBL document CHEMBL3774368, “1,2,4-Triazolyl octahydropyrrolo[2,3-b]pyrroles: A new series of potent and selective dopamine D3 receptor antagonists” (Bioorg Med Chem, 2016).

One assay concerns the target D(2) dopamine receptor (Homo sapiens, UniProt P14416). Briefly: Displacement of [3H]-spiperone from human dopamine D2 receptor expressed in CHO-K1 cell membranes after 120 mins by liquid scintillation counter method.
Another assay deals with D(3) dopamine receptor (Homo sapiens, UniProt P35462). The assay can be described thus: Displacement of [3H]-spiperone from human dopamine D3 receptor expressed in CHO-K1 cell membranes after 90 mins by liquid scintillation counter method. On the technique in general: In a radioligand displacement assay an active substance lowers the binding of a labelled ligand.
Sequence of D(3) dopamine receptor (P35462 whole entry): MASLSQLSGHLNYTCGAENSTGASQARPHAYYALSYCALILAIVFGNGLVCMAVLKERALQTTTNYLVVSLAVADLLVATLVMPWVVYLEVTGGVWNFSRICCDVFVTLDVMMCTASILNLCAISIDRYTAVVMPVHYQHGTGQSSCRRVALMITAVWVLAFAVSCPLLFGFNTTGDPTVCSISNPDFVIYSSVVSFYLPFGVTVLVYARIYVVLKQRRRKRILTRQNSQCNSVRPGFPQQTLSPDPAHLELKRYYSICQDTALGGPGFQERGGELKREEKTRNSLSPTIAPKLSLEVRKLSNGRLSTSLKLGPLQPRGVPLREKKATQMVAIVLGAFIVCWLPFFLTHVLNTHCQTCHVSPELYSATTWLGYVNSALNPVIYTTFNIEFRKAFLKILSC
Assay [1] addresses Voltage-gated inwardly rectifying potassium channel KCNH2 (Homo sapiens, UniProt Q12809). Briefly: Inhibition of human ERG tail current expressed in HEK293 cells after 5 mins by patch clamp assay. (In general: In patch-clamp work, channel activity is measured electrically.)

SMILES strings stand for the structures.

In general, Ki refers to the dissociation constant of the complex between target and ligand, obtained from inhibition or displacement. A low value points to tighter binding. What is called IC50 is the concentration that inhibits the measured activity by half.

Sequence of Voltage-gated inwardly rectifying potassium channel KCNH2 (Q12809 whole entry): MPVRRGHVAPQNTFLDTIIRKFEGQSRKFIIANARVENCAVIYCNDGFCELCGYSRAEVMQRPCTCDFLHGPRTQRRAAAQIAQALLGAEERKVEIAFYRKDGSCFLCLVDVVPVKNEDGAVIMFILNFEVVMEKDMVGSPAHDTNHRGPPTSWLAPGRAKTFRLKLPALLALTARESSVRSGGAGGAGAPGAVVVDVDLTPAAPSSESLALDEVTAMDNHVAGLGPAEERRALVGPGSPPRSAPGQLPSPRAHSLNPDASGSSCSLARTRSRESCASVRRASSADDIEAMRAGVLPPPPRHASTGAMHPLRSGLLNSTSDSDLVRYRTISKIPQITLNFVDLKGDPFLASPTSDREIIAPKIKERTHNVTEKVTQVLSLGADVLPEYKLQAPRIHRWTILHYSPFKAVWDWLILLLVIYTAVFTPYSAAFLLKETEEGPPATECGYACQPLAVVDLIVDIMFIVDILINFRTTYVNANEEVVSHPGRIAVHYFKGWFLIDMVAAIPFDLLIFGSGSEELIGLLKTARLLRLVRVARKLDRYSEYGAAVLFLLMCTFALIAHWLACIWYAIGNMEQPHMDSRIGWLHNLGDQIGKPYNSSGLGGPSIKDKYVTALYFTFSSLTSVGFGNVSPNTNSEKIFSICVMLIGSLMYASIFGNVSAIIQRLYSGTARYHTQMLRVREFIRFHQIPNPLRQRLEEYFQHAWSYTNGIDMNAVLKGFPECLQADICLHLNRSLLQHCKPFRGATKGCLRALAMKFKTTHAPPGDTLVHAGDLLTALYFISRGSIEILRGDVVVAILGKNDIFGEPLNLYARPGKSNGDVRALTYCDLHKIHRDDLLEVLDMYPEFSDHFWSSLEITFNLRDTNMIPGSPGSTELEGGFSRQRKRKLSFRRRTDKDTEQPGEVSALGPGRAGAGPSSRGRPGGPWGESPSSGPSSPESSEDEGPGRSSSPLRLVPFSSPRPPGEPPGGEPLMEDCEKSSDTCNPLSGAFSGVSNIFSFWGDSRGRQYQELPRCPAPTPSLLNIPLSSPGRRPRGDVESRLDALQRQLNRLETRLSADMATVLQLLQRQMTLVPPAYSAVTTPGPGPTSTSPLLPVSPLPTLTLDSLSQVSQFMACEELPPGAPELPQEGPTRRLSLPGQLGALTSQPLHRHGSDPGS
Sequence of D(2) dopamine receptor (P14416 whole entry): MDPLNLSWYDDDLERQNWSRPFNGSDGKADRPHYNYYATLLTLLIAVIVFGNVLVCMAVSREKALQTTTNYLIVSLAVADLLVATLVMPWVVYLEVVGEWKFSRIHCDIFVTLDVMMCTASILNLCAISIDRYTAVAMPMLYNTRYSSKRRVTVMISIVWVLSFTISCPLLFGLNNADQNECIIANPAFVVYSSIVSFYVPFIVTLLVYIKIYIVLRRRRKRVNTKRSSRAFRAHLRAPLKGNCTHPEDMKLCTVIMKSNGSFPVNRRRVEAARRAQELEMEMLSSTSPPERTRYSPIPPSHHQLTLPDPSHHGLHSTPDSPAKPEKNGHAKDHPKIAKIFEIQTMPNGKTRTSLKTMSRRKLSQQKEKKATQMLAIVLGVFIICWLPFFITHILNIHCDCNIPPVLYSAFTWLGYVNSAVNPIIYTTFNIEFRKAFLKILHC

On to `Cn1c(SCCCN2CC3CCN(c4c(F)cccc4F)C3C2)nnc1-c1cnccn1` (racemic), for which affinity at D(2) dopamine receptor was put at a Ki of 0.631 µM.
On D(2) dopamine receptor, `Cc1ncoc1-c1nnc(SCCCN2CC3CCN(c4ccc(F)cc4)C3C2)n1C` (racemic) had a Ki of 0.2 µM.
For the compound `Cc1ncoc1-c1nnc(SCCCN2CC3CCN(c4ccccc4OC(F)(F)F)C3C2)n1C` (racemic), the values for the Ki on D(3) dopamine receptor and on D(2) dopamine receptor were 0.001 µM and 0.02 µM, respectively.
As for `Cc1ncoc1-c1nnc(SCCCN2CC3CCN(c4ccc(C(F)(F)F)cc4)C3C2)n1C` (stereo in doubt; 7b), the Ki on D(3) dopamine receptor is 0.00316 µM.
`Cc1ncoc1-c1nnc(SCCCN2CC3CCN(c4ccc(F)cc4)C3C2)n1C` (stereo in doubt; 9b) showed a Ki on D(2) dopamine receptor of 0.2 µM.
As for `Cn1c(SCCCN2CC3CCN(c4ccccc4C#N)C3C2)nnc1-c1cnccn1` (racemic), the Ki on D(3) dopamine receptor is 0.00631 µM; at D(2) dopamine receptor it was 0.2 µM.
As to `COc1ccccc1N1CCC2CN(CCCSc3nnc(-c4cnccn4)n3C)CC21` (racemic), the values for the Ki on D(3) dopamine receptor and at D(2) dopamine receptor were 0.0158 µM and 0.316 µM, respectively.
The compound `Cc1ncoc1-c1nnc(SCCCN2CC3CN(c4ccc(C(F)(F)F)cc4)C3C2)n1C` (racemic) showed a Ki on D(3) dopamine receptor of 0.0398 µM. Besides, the IC50 in assay [1] was 0.631 µM.
With `Cn1c(SCCCN2CC3CCN(c4ccc(F)cc4)C3C2)nnc1-c1cc[nH]c(=O)c1` (racemic), on D(2) dopamine receptor, affinity was put at a Ki of 0.631 µM.
In the case of `Cn1c(SCCCN2CC3CCN(c4ccc(C(F)(F)F)cc4)C3C2)nnc1-c1cc[nH]c(=O)c1` (stereo in doubt; 55a), the Ki at D(3) dopamine receptor is 0.0158 µM; at D(2) dopamine receptor, 2 µM.
`Cc1cccc(N2CCC3CN(CCCSc4nnc(-c5cnccn5)n4C)CC32)c1` (racemic) had a Ki at D(3) dopamine receptor of 0.00398 µM.
On to `Cn1c(SCCCN2CC3CCN(c4ccc(C(F)(F)F)cc4)C3C2)nnc1-c1cccnc1` (racemic), for which affinity at D(3) dopamine receptor was put at a Ki of 0.00316 µM.
Still for that read-out and setting: under `Cn1c(SCCCN2CC3CCN(c4ccc(F)cc4C(F)(F)F)C3C2)nnc1-c1cnccn1` (racemic) stands 0.0251 µM.
With `Cn1c(SCCCN2CC3CCN(c4ccccc4C(F)(F)F)C3C2)nnc1-c1cccnc1` (racemic), the inhibition constant Ki on D(2) dopamine receptor was 0.794 µM.
For the compound `Cn1c(SCCCN2CC3CCN(c4ccc(C(F)(F)F)cc4)C3C2)nnc1-c1ccc(=O)[nH]c1` (racemic), the Ki is 0.00398 µM on D(3) dopamine receptor and 0.398 µM on D(2) dopamine receptor. The IC50 in assay [1] was 1 µM.
Turning to `COc1cc(N2CCC3CN(CCCSc4nnc(-c5cnccn5)n4C)CC32)ccc1F` (racemic), the results for the inhibition constant (Ki) at D(3) dopamine receptor and on D(2) dopamine receptor were 0.00316 µM and 0.501 µM, respectively.
Compound `Cc1ncoc1-c1nnc(SCCCN2CC3CCN(c4ccccc4)C3C2)n1C` (racemic) gave a Ki at D(2) dopamine receptor of 0.251 µM.
`Cc1ncoc1-c1nnc(SCCCN2CC3CCN(c4ccc(C(F)(F)F)cc4)C3C2)n1C` (racemic) had an inhibition constant Ki on D(3) dopamine receptor of 0.00158 µM.
With `CC(C)Oc1ccccc1N1CCC2CN(CCCSc3nnc(-c4cnccn4)n3C)CC21` (racemic), the figures for the Ki at D(3) dopamine receptor and on D(2) dopamine receptor were 0.01 µM and 0.251 µM, respectively.
Take `Cn1c(SCCCN2CC3CCN(c4ccc(OC(F)(F)F)cc4)C3C2)nnc1-c1cnccn1` (racemic): the results for the Ki at D(3) dopamine receptor and at D(2) dopamine receptor were 0.0126 µM and 0.316 µM, respectively.
As to `Cn1c(SCCCN2CC3CCN(c4cccc(OC(F)(F)F)c4)C3C2)nnc1-c1cnccn1` (racemic), the Ki on D(3) dopamine receptor is 0.000316 µM.
As to `Cc1ccccc1N1CCC2CN(CCCSc3nnc(-c4cnccn4)n3C)CC21` (racemic), the Ki at D(3) dopamine receptor was 0.126 µM.
As for `Cn1c(SCCCN2CC3CCN(c4ccc(C(F)(F)F)cc4)C3C2)nnc1-c1ccccn1` (racemic), on D(2) dopamine receptor, the Ki is 0.398 µM.
For the compound `Cn1c(SCCCN2CC3CCN(c4c(F)cccc4C(F)(F)F)C3C2)nnc1-c1cnccn1` (racemic), the Ki was 0.00398 µM on D(3) dopamine receptor and 0.398 µM on D(2) dopamine receptor.
Consider `Cc1ncoc1-c1nnc(SCCCN2CC3CCN(c4ccc(C(F)(F)F)cc4F)C3C2)n1C` (stereo in doubt; 8a), for which the Ki was 0.00501 µM at D(3) dopamine receptor and 1.58 µM on D(2) dopamine receptor. Moreover, the IC50 in assay [1] is 0.2 µM.
For the compound `Cn1cc(-c2nnc(SCCCN3CC4CCN(c5ccc(C(F)(F)F)cc5)C4C3)n2C)cn1` (racemic), the Ki on D(2) dopamine receptor is 0.2 µM.
On to `Cn1c(SCCCN2CC3CCN(c4ccc(C(F)(F)F)cc4)C3C2)nnc1C1CCCC1` (stereo in doubt; 64a), for which the Ki on D(3) dopamine receptor is 0.0002 µM.
Consider `Cn1c(SCCCN2CC3CCN(c4ccccc4C(F)(F)F)C3C2)nnc1-c1ccccn1` (racemic), for which the Ki was 0.00501 µM on D(3) dopamine receptor and 0.316 µM on D(2) dopamine receptor.
As for `Cc1ncoc1-c1nnc(SCCCN2CC3CCN(c4c(F)cccc4F)C3C2)n1C` (racemic), at D(3) dopamine receptor, the affinity corresponds to a Ki of 0.00251 µM.
Same read-out and setting: as for `Cn1c(SCCCN2CC3CCN(c4ccc(C(F)(F)F)cc4)C3C2)nnc1C1CCCC1` (racemic), the figure is 0.000398 µM.
In the case of `Cc1ncoc1-c1nnc(SCCCN2CC3CCN(c4cccc(C#N)c4)C3C2)n1C` (racemic), on D(2) dopamine receptor, the affinity corresponds to a Ki of 0.0501 µM.
Compound `Cn1c(SCCCN2CC3CCN(c4ccc(C(F)(F)F)cc4)C3C2)nnc1N1CCOCC1` (stereo in doubt; 61a) gave a Ki on D(3) dopamine receptor of 0.00316 µM.
In the case of `Cn1c(SCCCN2CC3CCN(c4ccc(C(F)(F)F)cc4)C3C2)nnc1-c1ccncc1` (racemic), the results for the Ki at D(3) dopamine receptor and at D(2) dopamine receptor were 0.002 µM and 0.398 µM, respectively.
On to `Cn1c(SCCCN2CC3CCN(c4cccc(C#N)c4)C3C2)nnc1-c1cnccn1` (racemic), for which the Ki is 0.002 µM at D(3) dopamine receptor and 0.1 µM on D(2) dopamine receptor.
On to `Cc1ncoc1-c1nnc(SCCCN2CC3CCN(c4ccc(OC(F)(F)F)cc4)C3C2)n1C` (racemic), for which, at D(2) dopamine receptor, the inhibition constant (Ki) was 0.631 µM.
`CC(C)Oc1ccccc1N1CCC2CN(CCCSc3nnc(-c4cnccn4)n3C)CC21` (stereo in doubt; 35a): the values for the Ki at D(3) dopamine receptor and on D(2) dopamine receptor were 0.0631 µM and 5.01 µM, respectively.
Consider `Cn1c(SCCCN2CC3CCN(c4ccc(C(F)(F)F)cc4)C3C2)nnc1-c1ccnnc1` (racemic), for which the Ki is 0.0126 µM at D(3) dopamine receptor and 0.631 µM on D(2) dopamine receptor.
With `Cn1c(SCCCN2CC3CCN(c4ccc(F)cc4)C3C2)nnc1C1CCCCC1` (racemic), the Ki is 0.0126 µM on D(3) dopamine receptor and 0.794 µM on D(2) dopamine receptor.
At D(3) dopamine receptor, `Cc1ncoc1-c1nnc(SCCCN2CC3CCCN(c4ccc(C(F)(F)F)cc4)C3C2)n1C` (racemic) showed a Ki of 0.0126 µM.
On to `Cn1c(SCCCN2CC3CCN(c4c(F)cc(F)cc4F)C3C2)nnc1-c1cnccn1` (racemic), for which the figures for the Ki at D(3) dopamine receptor and on D(2) dopamine receptor were 0.001 µM and 0.631 µM, respectively.
As to `Cn1c(SCCCN2CC3CCN(c4ccc(C(F)(F)F)cc4)C3C2)nnc1-c1cccnn1` (racemic), the Ki on D(3) dopamine receptor is 0.0501 µM; at D(2) dopamine receptor, 0.316 µM.
Consider `Cn1c(SCCCN2CC3CCN(c4ccc(C(F)(F)F)cc4)C3C2)nnc1-c1cnccn1` (stereo in doubt; 17a), for which the affinity on D(2) dopamine receptor corresponds to a Ki of 0.501 µM.
In the case of `Cn1c(SCCCN2CC3CCN(c4ccc(C(F)(F)F)cc4)C3C2)nnc1C1CCCCC1` (racemic), the Ki on D(3) dopamine receptor is 0.0398 µM; on D(2) dopamine receptor it was 6.31 µM.
In the same order, the values of `Cn1c(SCCCN2CC3CCN(c4ccc(C(F)(F)F)cc4)C3C2)nnc1N1CCOCC1` (stereo in doubt; 61b) are 0.002 µM and 0.2 µM.
As to `Cn1c(SCCCN2CC3CCN(c4ccc(C(F)(F)F)cc4)C3C2)nnc1-c1ccc(=O)n(C)c1` (racemic), affinity at D(3) dopamine receptor was put at a Ki of 0.00631 µM.
As for `Cn1c(SCCCN2CC3CCN(c4ccccc4C(F)(F)F)C3C2)nnc1-c1ccncc1` (racemic), the Ki on D(3) dopamine receptor is 0.00501 µM; on D(2) dopamine receptor, 0.251 µM.
Regarding `Cc1ccc(N2CCC3CN(CCCSc4nnc(-c5cnccn5)n4C)CC32)cc1` (racemic), the values for the inhibitory constant (Ki) on D(3) dopamine receptor and on D(2) dopamine receptor were 0.00794 µM and 0.631 µM, respectively.
In the same order, the values of `Cc1cc(-c2nnc(SCCCN3CC4CCN(c5ccc(C(F)(F)F)cc5)C4C3)n2C)on1` (racemic) are 0.00251 µM and 0.158 µM.
In the case of `Cn1c(SCCCN2CC3CCN(c4ccc(C(F)(F)F)cc4)C3C2)nnc1N1CCOCC1` (racemic), the Ki at D(2) dopamine receptor is 0.2 µM.
`Cn1c(SCCCN2CC3CCN(c4ccccc4)C3C2)nnc1C1CCOCC1` (racemic) had a Ki at D(3) dopamine receptor of 0.0126 µM.
As for `Cn1c(SCCCN2CC3CCN(c4ccc(F)cc4F)C3C2)nnc1-c1cnccn1` (racemic), the Ki at D(3) dopamine receptor is 0.01 µM; on D(2) dopamine receptor it was 0.398 µM.
With `Cc1ncoc1-c1nnc(SCCCN2CC3CCN(c4ccccc4)C3C2)n1C` (stereo in doubt; 6a), on D(2) dopamine receptor, affinity was put at a Ki of 0.398 µM. For the same compound, in assay [1], the midpoint of inhibition, the IC50, lay at 1.58 µM.
With `Cn1c(SCCCN2CC3CCN(c4ccccc4C(F)(F)F)C3C2)nnc1-c1cccnc1` (stereo in doubt; 52b), the Ki on D(2) dopamine receptor is 1.26 µM.
Turning to `Cn1c(SCCCN2CC3CCN(c4ccc(F)cc4F)C3C2)nnc1-c1cnccn1` (stereo in doubt; 36a), the Ki on D(3) dopamine receptor is 0.01 µM; at D(2) dopamine receptor it was 1 µM.
In the case of `Cc1ncoc1-c1nnc(SCCCN2CC3CCN(c4ccc(C(F)(F)F)cc4)C3C2)n1C` (stereo in doubt; 7a), on D(3) dopamine receptor, the Ki is 0.002 µM.
With `Cn1c(SCCCN2CC3CCN(c4ccc(F)cc4)C3C2)nnc1-c1ccn(C)c(=O)c1` (racemic), the Ki at D(3) dopamine receptor is 0.00794 µM; at D(2) dopamine receptor it was 0.398 µM.
In the case of `Cn1c(SCCCN2CC3CCN(c4ccc(C(F)(F)F)cc4)C3C2)nnc1-c1cncnc1` (racemic), the Ki was 0.0501 µM on D(3) dopamine receptor and 1.26 µM on D(2) dopamine receptor.
On D(3) dopamine receptor, `Cn1c(SCCCN2CC3CCN(c4ccc(C(F)(F)F)cc4)C3C2)nnc1C1CCCCC1` (stereo in doubt; 65a) had a Ki of 0.0126 µM.
With `Cn1c(SCCCN2CC3CCN(c4ccc(C#N)cc4)C3C2)nnc1-c1cnccn1` (racemic), the Ki at D(3) dopamine receptor is 0.126 µM; on D(2) dopamine receptor it was 6.31 µM.
In the same order, the values of `Cn1c(SCCCN2CC3CCN(c4cccc(F)c4)C3C2)nnc1-c1cnccn1` (racemic) are 0.00501 µM and 0.251 µM.
Turning to `Cn1c(SCCCN2CC3CCN(c4cccc(C(F)(F)F)c4)C3C2)nnc1-c1cnccn1` (racemic), the Ki on D(3) dopamine receptor was 0.0002 µM; at D(2) dopamine receptor, 0.0316 µM.
`Cn1c(SCCCN2CC3CCN(c4ccccc4)C3C2)nnc1C1CCOCC1` (stereo in doubt; 62b): the Ki at D(3) dopamine receptor was 0.0251 µM.
Regarding `Cn1c(SCCCN2CC3CCN(c4ccc(F)cc4)C3C2)nnc1-c1cnccn1` (racemic), the Ki at D(3) dopamine receptor was 0.002 µM; at D(2) dopamine receptor, 0.2 µM.
For `Cc1ncoc1-c1nnc(SCCCN2CC3OCCN(c4ccc(C(F)(F)F)cc4)C3C2)n1C` (racemic), the affinity at D(3) dopamine receptor corresponds to a Ki of 0.0316 µM.
